The values below come from US8512734B2, “Biocompatible coating of medical devices” (Katholieke Universiteit Leuven, K.U.Leuven R&D, priority 2004, dated 2013).

SMILES strings stand for the structures.

This series in a line: In-vitro release of β-estradiol from loaded zeogrid in simulated body fluid (HPLC). In kind it is physicochemical. Conditions: 10 mg loaded zeogrid in 20 ml SBF, room temperature, continuous stirring. The procedure: Loading of the zeogrid sample with β-estradiol proceeds as follows. 50 mg β-estradiol is dissolved in 100 ml methylenechloride. 500 mg of zeogrid is suspended in the solution. Everything is stirred during 24 hours in a closed container. After 24 hours, the container is opened and the methylenechloride is evaporated at room temperature. The resulting powder is further dried and kept during 24 hours under reduced pressure to remove the solvent.
Release of β-estradiol from zeogrids. Simulated body fluid (SBF) was used as dissolution medium. SBF was prepared by first dissolving 1% SLS (Sodium lauryl sulphate) and 0.90% NaCl in distilled water. The solution was mixed with ethanol in a volume ratio solution:ethanol of 24:1.
The in-vitro release experiments were carried out at room temperature by dispersing 10 mg quantities of the loaded zeogrid into 20 ml quantities of SBF. In order to avoid limitations of the delivery rate by external diffusion constraints, continuous stirring is maintained. The release profile was obtained by measuring drug concentration in the fluid after different times by means of HPLC.

With `C[C@]12CC[C@@H]3c4ccc(O)cc4CC[C@H]3[C@@H]1CC[C@@H]2O` [β-estradiol], the “Time after which release of β-estradiol from zeogrid is completed” value is 30 min.
